Experimental data: patent US9624491B2, “Methods and compositions for the detection and treatment of cancer involving miRNAs and miRNA inhibitors and targets” (Memorial Sloan Kettering Cancer Center, priority 2010, dated 2017)

B1: TTTGGCACTGGTAGAACTCCCAATCTTCCTGTCAGAGTGTGAGTTCTACCATTGCCAAATTTTT (nucleic acid)
antisense: TTTGGCACTGGTAGAACTCCCAATCTTCCTGTCAGAGTGTGAGTTCTACCATTGCCAAATTTTT
modifications: listed as DNA, chemistry not fully specified
notes: control antagomir to the randomly chosen miR-182

Columns and labels:
T-ALL1 cells [1] = test: Cell number during in vitro culture of T-ALL1 cells expressing antagomirs; format: cell-based, human; settings: T-ALL1, 6 d culture
Protocol: (§1) Given the pleiotropic and partially overlapping pattern of tumor suppressor gene regulation by multiple miRNAs, the effect of miRNA antagomirs on the growth rate and viability of two human T-ALL cell lines, T-ALL1 and Koptk1, were assessed. The human T-ALL1 cell line expresses high levels of miR-19a, miR-19b, miR-26a and miR-92 but only low levels of other miRNAs, e.g. miR-148a and the randomly chosen miR-182 (FIG. 27b inset). […] Results in the Koptk1 cell line were analogous to those in the T-ALL1 cell line (FIG. 28).
(§2) FL5-12 murine pro B-lymphocytes, cell cycle and apoptosis studies and viral transductions were as described (Mavrakis, et al., 2008), (Plas, Talapatra, Edinger, Rathmell, & Thompson, 2001). T-ALL cell lines, including Jurkat, were cultured in RPMI 1640 medium supplemented with 10-20% fetal calf serum, 100 U/ml penicillin G and 100 μg/ml streptomycin at 37° C. in a humidified atmosphere under 5% CO2. All vectors are based on murine stem cell virus (MSCV) and include the miRNA expression vector encoding all miRNAs described (He, et al., 2005), NOTCH1-ICN (Pear, et al., 1996) and the individual shRNA vectors (protein knockdown by shRNAs; FIG. 10). The miRNA pooled library (He, et al., 2005) is a generous gift from G. J. Hannon and has been expanded by PCR cloning to contain ˜300 miRNAs. The antagomirs MZIP19a-PA-1, MZIP19b-PA-1, MZIP26a-PA-1, MZIP92a-PA-1, MZIP148a-PA-1, MZIP182-PA1, MZIP223-PA-1 and scrambled control (MZIP000-PA-1) were from System Biosciences.

PTEN and BCL2L11 = test: Quantitative RT-PCR of BCL2L11 and PTEN mRNA in T-ALL1 cells; format: cell-based, human
Source text: (§3) Total RNA and miRNA-enriched RNA was extracted using the Allprep DNA/RNA/Protein and miRNeasy Mini kits. Pathological diagnosis was by expert hematopathologists at Weill Cornell Medical Center. cDNA synthesis, PCR and analysis by the ΔΔ Ct method were as described (Mavrakis, et al., 2008) and utilized Taqman Gene Expression Assays: Bcl2l11 (Mm00437796_m1), BCL2L11 (Hs00197982_m1), Pten (Mm01212532_m1), PTEN (Hs02621230_s1), Nf1 (Mm00812430_m1), NF1 (Hs01035104_m1), Ikzf1 (Mm01187878_m1), IKZF1 (Hs00172991_m1), Fbxw7 (Mm00504452_m1), FBXW7 (Hs00217794_m1), Phf6 (Mm00804415_m1), and Mouse GAPD (GAPDH) (4352932, Applied Biosystems). Expression was normalized to RNU6B (001093, Applied Biosystems).

T-ALL1 cells [2] = test: Viability of T-ALL1 cells transduced with antagomirs; format: cell-based, human
Protocol: as §1, §2

FL5-12 lymphocytes = test: IL3 depletion competition assay for cytokine-independent survival of FL5-12 lymphocytes; format: cell-based, murine; settings: for IL-3 independence of FL5-12 cells: retest of individual miRNAs from secondary library screen
Protocol: An established in vitro assay of hematopoietic transformation (Plas, Talapatra, Edinger, Rathmell, & Thompson, 2001) was used to identify the key oncogenic activities within the 17˜92 cluster and its paralogues. All miRNAs representing families of unique seed sequences, specifically miR-17, miR-18a, miR-19b-1 (miR-19), miR-20a, miR-106a, miR-106b and miR-25 were tested (FIG. 1a). The assay is based on the IL3 dependence of FL5-12 lymphocytes, which undergo apoptosis when removed from IL3. In competition experiments, FL5-12 cells were partially transduced with GFP plus individual miRNAs or empty vector and these mixed populations were monitored by fluorescence-activated cell sorting (FACS) for changes in their relative proportions (FIG. 1b).
FL5-12 murine lymphocytes, IL3 depletion studies and viral transductions were as described (Mavrakis, et al., 2008) (Plas, Talapatra, Edinger, Rathmell, & Thompson, 2001). Cell cycle and cell death assays based on uptake of DNA staining dye (LDS751) using Cell cycle and Viacount assays from Guava Technologies were performed as reported (Mavrakis, et al., 2008). The retroviral vectors are based on murine stem cell virus (MSCV) and include the miRNA expression vectors encoding miRs 17, 18a, 19b-1 (miR-19), 106a, 106b, 25 (He, et al., 2005), the vectors encoding Notch-ICN (a gift from W. Pear) (Pear, et al., 1996) and Bcl2 (Wendel, et al., 2004), the individual shRNA vectors (FIG. 17) and the library vector (MRP) (FIGS. 18a and b). miRNA inhibitor oligonucleotides (antagomirs) MZIP19a-PA-1, MZIP19b-PA-1, and scrambled control (MZIP000-PA-1) were from System Biosciences.
The primary screen is based on c-MYC-induced apoptosis in MEFs (Evan, et al., 1992). MEFs were transduced with c-MYC and the miRNA library and cultured in puromycin to select for homogeneous c-MYC expression; apoptosis was triggered by diluting serum from 10% to 0.1%. Surviving cells remained adherent and were collected for DNA isolation, PCR amplification of the integrated miRNA library constructs, sub-cloning into pGEM-T vector, bacterial transformation, and sequence identification of ˜100 colonies. A secondary library was constructed by sub-cloning all miRNAs from the primary screen into an MSCV construct. The secondary screen is based on the IL-3 dependence of FL5-12 lymphocytes in vitro (Mavrakis, et al., 2010), (Plas, Talapatra, Edinger, Rathmell, & Thompson, 2001). FL5-12 cells were partially transduced with the pooled, GFP-tagged library and selected by IL-3 depletion. miRNAs were identified as above. Individual miRNAs were subsequently validated in the same FL5-12 assay and in vivo.

[3] = test system: PTEN, BCL2L11, PHF6, IKZF1, NF1, FBXW7; test: 3′UTR reporter, quantitative PCR and immunoblot assays of tumor suppressor genes in murine leukemias; format: cell-based; settings: murine T-ALLs expressing NOTCH1 and miRNA, mRNA, protein
Protocol: Immunoblots of whole cell lysates were performed as described (Wendel, et al., 2004). Antibodies were against Bim/Bcl2l11 (AAP-330, 1:1000, Assay Designs), Nf1 (sc67, 1:100, Santa Cruz), Cdc4/Fbxw7 (ab7405, 1:500, Abeam), Ikzf1 (sc-13039, 1:500, Santa Cruz), Phf6 (NB100-79861, 1:1000, Novus Biologicals), Pten (9559, 1:1000, Cell Signaling), tubulin (1:5000; Sigma, B-5-1-2) and actin (1:5000; Sigma, AC-15).
as §3
The mouse FBXW7 (bp 2793-4139; acc. no. NM_001177773), human NF1 (bp 10033-10666; acc. no NM_000267), human PHF6 (bp position 3271-4299; acc. no. NM_001015877) and Bim (bp. 3155-4773; acc. no. NM_009754) 3′UTR fragments were generated by PCR and cloned into the psi-CHECK-2 vector (Promega) with the exception of the IKZF1 3′UTR, which was purchased from Genecopoeia (cat no. HmiT000397b, by 2343-4471 of UTR). The assays were performed as described (Xiao, et al., 2008).

Molecule	growth rate (T-ALL1 cells [1])	expression of PTEN and BCL2L11 (PTEN and BCL2L11)	cell viability (T-ALL1 cells [2])	enrichment of cells co-expressing miR-19/GFP following IL3 depletion (FL5-12 lymphocytes; treated with 1 μM metformin to activate AMP-kinase)	regulation of tumor suppressor genes [3]	IL-3 independence of FL5-12 cells (FL5-12 lymphocytes)
TTCAAGTGATCCAGGATCGGATCTTCCTGTCAGAGCCTATCCTGGATTACTTGAATTTTT (listed as DNA, chemistry not fully specified) [antagomir against miR-26a, antagomir to miR26a, miRZIP from System Biosciences]	reduce growth rate	de-repress the tumor suppressor genes PTEN and BCL2L11	significantly decrease cell viability			
CN(C)C(=N)N=C(N)N [metformin, reference compound]				Neither the other cDNAs nor metformin treatment abrogated miR-19's protective function		
miR-26: miRNA, UUCAAGUAAUCCAGGAUAGGCU (SEQ ID NO: 5) (expressed or natural sequence; listed as Homo sapiens)					reduce levels of PTEN and PHF6 protein and mRNA in leukemic cells	confirmed to confer IL-3 independence on FL5-12 cells
TCAGTGCGCTACAGAACGTTATCTTCCTGTCAGACAAAGTTCTGTAGTGCACTGATTTTT (listed as DNA, chemistry not fully specified) [antagomir against miR-148a, antagomir to miR148, miRZIP from System Biosciences]	no significant (p>0.05) effect	no significant (p>0.05) effect	no significant (p>0.05) effect			
miR-20a: miRNA, UAAAGUGCUUAUAGUGCAGGUAG (SEQ ID NO: 3) (expressed or natural sequence; listed as Homo sapiens)					reduce levels of PTEN and PHF6 protein and mRNA in leukemic cells	
miR-223: miRNA, UGUCAGUUUGUCAAAUACCCCA (SEQ ID NO: 10) (expressed or natural sequence; listed as Homo sapiens)					strongly regulates FBXW7 reporter activity and protein levels	confirmed to confer IL-3 independence on FL5-12 cells
miR-92: miRNA, UAUUGCACUUGUCCCGGCCUGU (SEQ ID NO: 6) (expressed or natural sequence; listed as Homo sapiens)					affects IKZF1 and FBWX7 but does not target the murine NF1	
TATTGCAATTGTCCCGGACTATCTTCCTGTCAGACAGGCCGGGACAAGTGCAATATTTTT (listed as DNA, chemistry not fully specified) [antagomir against miR-92, antagomir to miR92a, miRZIP from System Biosciences]	reduce growth rate	de-repress the tumor suppressor genes PTEN and BCL2L11	significantly decrease cell viability			
B1	no significant (p>0.05) effect	no significant (p>0.05) effect	no significant (p>0.05) effect			
